In the supplement of paper PMC11208160:

Test: recombinant barcode read abundance after kanamycin selection (control-corrected) (log10(CPM+1)); higher = more efficient recombination; sequences stand for … in AGTGCAGAGAAAATCGGCCAGTTTTCTCTGCCTGCAGTCCGCATGCCGT…ATTTATGCAGCGGACTGCCTTTCTCCCAAAGTGATAAACCGGACAGTATCATGGACCGGTTTTCCCGGTAATCCGTATTTGCAAGGTTGGTTTCACT; site = the 11-nt target
Protocol: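 Same pooled E. coli target screen (IS621 bridge recombinase, kanamycin selection, control-corrected CPM, mean of 2 biological replicates). Here the two core-binding nucleotides of the LTG and RTG of the bridge RNA target-binding loop are mutated. Target and donor CT cores are held constant, and the other 9 guide positions match the target. The target is read from the library oligo sequence. Molecule = full bridge RNA written as DNA: nt 1-80 from the library oligo, rest WT scaffold.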

Sequence	recombinant barcode read abundance (log10)
AAACACAACTGGGTTCTAACCTGTTGCCTAG [AAACACACTAG_LTGcore_AC_RTGcore_CT] (site AAACACACTAG) (LTG core: AC, RTG core: CT)	0.0236
AAACACAAGTGGGTTCTAACCTGTTGCCTCT [AAACACACTAG_LTGcore_AG_RTGcore_AG] (site AAACACACTAG) (LTG core: AG, RTG core: AG)	0.196
AAACACACATGGGTTCTAACCTGTTGCCTTG [AAACACACTAG_LTGcore_CA_RTGcore_CA] (site AAACACACTAG) (LTG core: CA, RTG core: CA)	0.341
AAACACACTTGGGTTCTAACCTGTTGCCTAC [AAACACACTAG_LTGcore_CT_RTGcore_GT] (site AAACACACTAG) (LTG core: CT, RTG core: GT)	0.217
AAACACACTTGGGTTCTAACCTGTTGCCTAG [AAACACACTAG_LTGcore_CT_RTGcore_CT] (site AAACACACTAG) (LTG core: CT, RTG core: CT)	2
AAACACACTTGGGTTCTAACCTGTTGCCTCA [AAACACACTAG_LTGcore_CT_RTGcore_TG] (site AAACACACTAG) (LTG core: CT, RTG core: TG)	0.985
AAACACACTTGGGTTCTAACCTGTTGCCTTA [AAACACACTAG_LTGcore_CT_RTGcore_TA] (site AAACACACTAG) (LTG core: CT, RTG core: TA)	0.852
AAACACATCTGGGTTCTAACCTGTTGCCTGA [AAACACACTAG_LTGcore_TC_RTGcore_TC] (site AAACACACTAG) (LTG core: TC, RTG core: TC)	0.505
AAACAGTAATGGGTTCTAACCTGTTGCCTAG [AAACAGTCTAG_LTGcore_AA_RTGcore_CT] (site AAACAGTCTAG) (LTG core: AA, RTG core: CT)	0.01
AAACAGTACTGGGTTCTAACCTGTTGCCTAG [AAACAGTCTAG_LTGcore_AC_RTGcore_CT] (site AAACAGTCTAG) (LTG core: AC, RTG core: CT)	0.0247
AAACAGTCATGGGTTCTAACCTGTTGCCTAG [AAACAGTCTAG_LTGcore_CA_RTGcore_CT] (site AAACAGTCTAG) (LTG core: CA, RTG core: CT)	1.38
AAACAGTCATGGGTTCTAACCTGTTGCCTTG [AAACAGTCTAG_LTGcore_CA_RTGcore_CA] (site AAACAGTCTAG) (LTG core: CA, RTG core: CA)	0.25
AAACAGTCGTGGGTTCTAACCTGTTGCCTCG [AAACAGTCTAG_LTGcore_CG_RTGcore_CG] (site AAACAGTCTAG) (LTG core: CG, RTG core: CG)	0.227
AAACAGTCTTGGGTTCTAACCTGTTGCCTAT [AAACAGTCTAG_LTGcore_CT_RTGcore_AT] (site AAACAGTCTAG) (LTG core: CT, RTG core: AT)	1.32
AAACAGTCTTGGGTTCTAACCTGTTGCCTCC [AAACAGTCTAG_LTGcore_CT_RTGcore_GG] (site AAACAGTCTAG) (LTG core: CT, RTG core: GG)	1.4
AAACAGTGATGGGTTCTAACCTGTTGCCTAG [AAACAGTCTAG_LTGcore_GA_RTGcore_CT] (site AAACAGTCTAG) (LTG core: GA, RTG core: CT)	0.192
AAACAGTGATGGGTTCTAACCTGTTGCCTTC [AAACAGTCTAG_LTGcore_GA_RTGcore_GA] (site AAACAGTCTAG) (LTG core: GA, RTG core: GA)	0.0385
AAACAGTGGTGGGTTCTAACCTGTTGCCTAG [AAACAGTCTAG_LTGcore_GG_RTGcore_CT] (site AAACAGTCTAG) (LTG core: GG, RTG core: CT)	0.0371
AAACAGTTGTGGGTTCTAACCTGTTGCCTCA [AAACAGTCTAG_LTGcore_TG_RTGcore_TG] (site AAACAGTCTAG) (LTG core: TG, RTG core: TG)	0.0424
AAACAGTTTTGGGTTCTAACCTGTTGCCTAG [AAACAGTCTAG_LTGcore_TT_RTGcore_CT] (site AAACAGTCTAG) (LTG core: TT, RTG core: CT)	0.109
AAACATGAATGGGTTCTAACCTGTTGCCTAG [AAACATGCTAG_LTGcore_AA_RTGcore_CT] (site AAACATGCTAG) (LTG core: AA, RTG core: CT)	0
AAACATGACTGGGTTCTAACCTGTTGCCTGT [AAACATGCTAG_LTGcore_AC_RTGcore_AC] (site AAACATGCTAG) (LTG core: AC, RTG core: AC)	0.123

Sequence	recombinant barcode read abundance (log10)
AAACATGCTTGGGTTCTAACCTGTTGCCTAC [AAACATGCTAG_LTGcore_CT_RTGcore_GT] (site AAACATGCTAG) (LTG core: CT, RTG core: GT)	1.05
AAACATGCTTGGGTTCTAACCTGTTGCCTGC [AAACATGCTAG_LTGcore_CT_RTGcore_GC] (site AAACATGCTAG) (LTG core: CT, RTG core: GC)	0.756
AAACATGCTTGGGTTCTAACCTGTTGCCTTA [AAACATGCTAG_LTGcore_CT_RTGcore_TA] (site AAACATGCTAG) (LTG core: CT, RTG core: TA)	0.485
AAACATGCTTGGGTTCTAACCTGTTGCCTTT [AAACATGCTAG_LTGcore_CT_RTGcore_AA] (site AAACATGCTAG) (LTG core: CT, RTG core: AA)	0.865
AAACATGGGTGGGTTCTAACCTGTTGCCTCC [AAACATGCTAG_LTGcore_GG_RTGcore_GG] (site AAACATGCTAG) (LTG core: GG, RTG core: GG)	0.137
AAACATGTGTGGGTTCTAACCTGTTGCCTCA [AAACATGCTAG_LTGcore_TG_RTGcore_TG] (site AAACATGCTAG) (LTG core: TG, RTG core: TG)	0.015
ACGGGACATTGGGTTCTAACCTGTTGCAGAG [ACGGGACCTCT_LTGcore_AT_RTGcore_CT] (site ACGGGACCTCT) (LTG core: AT, RTG core: CT)	0.0817
ACGGGACCGTGGGTTCTAACCTGTTGCAGAG [ACGGGACCTCT_LTGcore_CG_RTGcore_CT] (site ACGGGACCTCT) (LTG core: CG, RTG core: CT)	1.86
ACGGGACCTTGGGTTCTAACCTGTTGCAGCA [ACGGGACCTCT_LTGcore_CT_RTGcore_TG] (site ACGGGACCTCT) (LTG core: CT, RTG core: TG)	0.0129
ACGGGACCTTGGGTTCTAACCTGTTGCAGGT [ACGGGACCTCT_LTGcore_CT_RTGcore_AC] (site ACGGGACCTCT) (LTG core: CT, RTG core: AC)	0.534
ACGGGACCTTGGGTTCTAACCTGTTGCAGTC [ACGGGACCTCT_LTGcore_CT_RTGcore_GA] (site ACGGGACCTCT) (LTG core: CT, RTG core: GA)	0.425
ACGGGACGTTGGGTTCTAACCTGTTGCAGAG [ACGGGACCTCT_LTGcore_GT_RTGcore_CT] (site ACGGGACCTCT) (LTG core: GT, RTG core: CT)	0.463
ACGGGACTATGGGTTCTAACCTGTTGCAGAG [ACGGGACCTCT_LTGcore_TA_RTGcore_CT] (site ACGGGACCTCT) (LTG core: TA, RTG core: CT)	0.0145
ACGGGACTCTGGGTTCTAACCTGTTGCAGGA [ACGGGACCTCT_LTGcore_TC_RTGcore_TC] (site ACGGGACCTCT) (LTG core: TC, RTG core: TC)	0
AGGAGGTACTGGGTTCTAACCTGTTGCCTGT [AGGAGGTCTAG_LTGcore_AC_RTGcore_AC] (site AGGAGGTCTAG) (LTG core: AC, RTG core: AC)	0.183
AGGAGGTATTGGGTTCTAACCTGTTGCCTAT [AGGAGGTCTAG_LTGcore_AT_RTGcore_AT] (site AGGAGGTCTAG) (LTG core: AT, RTG core: AT)	0.643
AGGAGGTCATGGGTTCTAACCTGTTGCCTAG [AGGAGGTCTAG_LTGcore_CA_RTGcore_CT] (site AGGAGGTCTAG) (LTG core: CA, RTG core: CT)	0.207
AGGAGGTCATGGGTTCTAACCTGTTGCCTTG [AGGAGGTCTAG_LTGcore_CA_RTGcore_CA] (site AGGAGGTCTAG) (LTG core: CA, RTG core: CA)	0
AGGAGGTCCTGGGTTCTAACCTGTTGCCTGG [AGGAGGTCTAG_LTGcore_CC_RTGcore_CC] (site AGGAGGTCTAG) (LTG core: CC, RTG core: CC)	0.227
AGGAGGTCGTGGGTTCTAACCTGTTGCCTCG [AGGAGGTCTAG_LTGcore_CG_RTGcore_CG] (site AGGAGGTCTAG) (LTG core: CG, RTG core: CG)	0.384
AGGAGGTCTTGGGTTCTAACCTGTTGCCTAC [AGGAGGTCTAG_LTGcore_CT_RTGcore_GT] (site AGGAGGTCTAG) (LTG core: CT, RTG core: GT)	0.332
AGGAGGTCTTGGGTTCTAACCTGTTGCCTTA [AGGAGGTCTAG_LTGcore_CT_RTGcore_TA] (site AGGAGGTCTAG) (LTG core: CT, RTG core: TA)	0.446
